Source: PubChem BioAssay AID330 (DTP/NCI, 2004)
Several values for one entry are separate records, joined by “and”; a condition that tells them apart may be missing. Identical values can stand only once. Inconclusive results and toxic doses are left out.

Tested on: P388 leukemia ip, CD2F1 mice, survival T/C
Assay: NCI In Vivo Anticancer Drug Screen. Data for tumor model P388 Leukemia (intraperitoneal) in CD2F1 (CDF1) mice
Details: endpoint: median survival time, higher = longer survival
Method in brief: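 Mice carrying the transplanted tumor received test compound or vehicle. Survival was recorded in each group, and the value is the treated-group measurement divided by that of the vehicle-treated control group.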

[1] = dose: 25.0 mg/kg/injection, schedule: Q04DX003 (ip), vehicle: saline with Tween-80
[2] = dose: 50.0 mg/kg/injection, schedule: Q01DX005 (ip), vehicle: saline with Tween-80
[3] = dose: 100.0 mg/kg/injection, schedule: Q01DX005 (ip), vehicle: saline with Tween-80
[4] = dose: 50.0 mg/kg/injection, schedule: Q01DX005 (ip), vehicle: Klucel (hydroxypropylcellulose) (HPC)
[5] = dose: 100.0 mg/kg/injection, schedule: Q01DX005 (ip), vehicle: Klucel (hydroxypropylcellulose) (HPC)
[6] = dose: 200.0 mg/kg/injection, schedule: Q01DX005 (ip), vehicle: Klucel (hydroxypropylcellulose) (HPC)
[7] = dose: 50.0 mg/kg/injection, schedule: Q01DX009 (ip), vehicle: saline with Tween-80
[8] = dose: 60.0 mg/kg/injection, schedule: Q01DX005 (ip), vehicle: saline with Tween-80
[9] = dose: 120.0 mg/kg/injection, schedule: Q01DX005 (ip), vehicle: saline with Tween-80
[10] = dose: 240.0 mg/kg/injection, schedule: Q01DX005 (ip), vehicle: saline with Tween-80

In the case of `COC(=O)[C@@]12OC[C@]34[C@H]([C@@H](O)[C@@H]1O)[C@@]1(C)[C@H](O)C(=O)C=C(C)[C@@H]1C[C@H]3OC(=O)C(OC(C)=O)[C@@H]24` (stereo partly specified), the T/C (dose: 0.1 micrograms/kg/injection, schedule: Q01DX009 (ip), vehicle: saline + alcohol) is reported as 96 % of control, the T/C (dose: 0.2 micrograms/kg/injection, schedule: Q01DX009 (ip), vehicle: saline + alcohol) is reported as 102 % of control and the T/C (dose: 0.5 micrograms/kg/injection, schedule: Q01DX009 (ip), vehicle: saline + alcohol) is reported as 105 % of control. The T/C (dose: 1.0 micrograms/kg/injection, schedule: Q01DX009 (ip), vehicle: saline + alcohol) was 93 % of control, the T/C (dose: 2.0 micrograms/kg/injection, schedule: Q01DX009 (ip), vehicle: saline + alcohol) was 100 % of control and the T/C (dose: 4.0 micrograms/kg/injection, schedule: Q01DX009 (ip), vehicle: saline + alcohol) was 88 % of control.
`OCCOc1ccc2ccccc2c1-c1c(OCCOc2ccc3ccccc3c2-c2c(OCCO)ccc3ccccc23)ccc2ccccc12` was tested, and the T/C (dose: 100.0 mg/kg/injection, schedule: Q01DX001 (ip), vehicle: saline with Tween-80) was 96 % of control, the T/C (dose: 200.0 mg/kg/injection, schedule: Q01DX001 (ip), vehicle: saline with Tween-80) was 88 % of control and the T/C (dose: 400.0 mg/kg/injection, schedule: Q01DX001 (ip), vehicle: saline with Tween-80) was 92 % of control.
In the case of `COC(=O)c1ccc(OC)c(OC)c1-c1c(C(=O)OC)c(C(=O)OC)c2n1CCc1cc3c(cc1-2)OCO3`, the T/C (dose: 50.0 mg/kg/injection, schedule: Q04DX002 (ip), vehicle: saline with Tween-80) is reported as 103 % of control, the T/C (dose: 100.0 mg/kg/injection, schedule: Q04DX002 (ip), vehicle: saline with Tween-80) is reported as 100 % of control and the T/C (dose: 200.0 mg/kg/injection, schedule: Q04DX002 (ip), vehicle: saline with Tween-80) is reported as 90 % of control.
For `O=C1c2ccccc2CCC1Cl` (stereo unspecified), the T/C (dose: 1.56 mg/kg/injection, schedule: Q01DX009 (ip), vehicle: DMSO) was 100 % of control, the T/C (dose: 3.12 mg/kg/injection, schedule: Q01DX009 (ip), vehicle: DMSO) was 103 % of control and the T/C (dose: 6.25 mg/kg/injection, schedule: Q01DX009 (ip), vehicle: DMSO) was 94 % of control and 97 % of control. For the same compound, the T/C (dose: 12.5 mg/kg/injection, schedule: Q01DX009 (ip), vehicle: DMSO) was 102 % of control and the T/C (dose: 25.0 mg/kg/injection, schedule: Q01DX009 (ip), vehicle: DMSO) was 94 % of control.
`Cc1nc(N)nc(N)c1-c1ccc(Cl)c(Cl)c1` was tested, and the T/C (dose: 1.0 mg/kg/injection, schedule: Q01DX009 (ip), vehicle: saline) was 109 % of control, the T/C (dose: 2.0 mg/kg/injection, schedule: Q01DX009 (ip), vehicle: saline) was 123 % of control and the T/C (dose: 3.0 mg/kg/injection, schedule: Q01DX009 (ip), vehicle: saline with Tween-80) was 163 % of control. For the same compound, the T/C (dose: 4.0 mg/kg/injection, schedule: Q01DX009 (ip), vehicle: saline) was 98 % of control, the T/C (dose: 4.0 mg/kg/injection, schedule: Q04DX002 (ip), vehicle: saline with Tween-80) was 104 % of control and the T/C (dose: 6.0 mg/kg/injection, schedule: Q01DX009 (ip), vehicle: saline with Tween-80) was 86 % of control. For the same compound, the T/C (dose: 6.0 mg/kg/injection, schedule: Q04DX002 (ip), vehicle: saline with Tween-80) was 104 % of control, the T/C (dose: 6.25 mg/kg/injection, schedule: Q04DX003 (ip), vehicle: saline with Tween-80) was 120 % of control and the T/C (dose: 8.0 mg/kg/injection, schedule: Q01DX009 (ip), vehicle: saline) was 98 % of control. The T/C (dose: 8.0 mg/kg/injection, schedule: Q04DX002 (ip), vehicle: saline with Tween-80) was 99 % of control, the T/C (dose: 10.0 mg/kg/injection, schedule: Q04DX002 (ip), vehicle: saline with Tween-80) was 107 % of control and the T/C (dose: 12.0 mg/kg/injection, schedule: Q04DX002 (ip), vehicle: saline with Tween-80) was 123 % of control. For the same compound, the T/C (dose: 20.0 mg/kg/injection, schedule: Q04DX002 (ip), vehicle: saline) was 99 % of control, the T/C [1] was 155 % of control and the T/C (dose: 30.0 mg/kg/injection, schedule: Q04DX002 (ip), vehicle: saline) was 107 % of control. For the same compound, the T/C (dose: 40.0 mg/kg/injection, schedule: Q04DX002 (ip), vehicle: saline) was 119 % of control.
In the case of `O=C(N=Nc1c(O)[nH]c2ccccc12)C(F)(F)F`, the T/C [2] is reported as 108 % of control, the T/C [3] is reported as 101 % of control and the T/C (dose: 200.0 mg/kg/injection, schedule: Q01DX005 (ip), vehicle: saline with Tween-80) is reported as 108 % of control.
For `CC(=O)OC1C(c2ccc(Cl)cc2)CC2CCC1N2C` (stereo unspecified), the T/C [2] was 103 % of control and the T/C [3] was 102 % of control.
With `Nc1cc2nc3ccccc3c(=O)n2[nH]1` the T/C [4] was 98 % of control, the T/C [5] was 91 % of control and the T/C [6] was 86 % of control.
`O=C([O][Hg][CH2]C1COC([CH2][Hg][O]C(=O)c2ccccc2)CO1)c1ccccc1` (stereo unspecified) was tested, and the T/C (dose: 25.0 mg/kg/injection, schedule: Q01DX009 (ip), vehicle: saline with Tween-80) was 120 % of control, the T/C [1] was 104 % of control and the T/C [7] was 120 % of control. The T/C (dose: 50.0 mg/kg/injection, schedule: Q04DX003 (ip), vehicle: saline with Tween-80) was 90 % of control and the T/C (dose: 100.0 mg/kg/injection, schedule: Q04DX003 (ip), vehicle: saline with Tween-80) was 95 % of control.
`[Cu+2].[NH-]C(=O)NC([NH-])=O.[NH-]C(=O)NC([NH-])=O` was tested, and the T/C (dose: 6.25 mg/kg/injection, schedule: Q01DX005 (ip), vehicle: saline with Tween-80) was 99 % of control and the T/C (dose: 12.5 mg/kg/injection, schedule: Q01DX005 (ip), vehicle: saline with Tween-80) was 99 % of control.
With `O=C1/C(=C/c2ccccc2[N+](=O)[O-])COc2ccccc21` the T/C [8] was 97 % of control, the T/C [9] was 103 % of control and the T/C [10] was 97 % of control.
For `C(=N/NC1=NCCN1)/c1ccnc2ccccc12`, the T/C (dose: 15.0 mg/kg/injection, schedule: Q01DX005 (ip), vehicle: saline) was 100 % of control, the T/C (dose: 30.0 mg/kg/injection, schedule: Q01DX005 (ip), vehicle: saline) was 98 % of control and the T/C (dose: 60.0 mg/kg/injection, schedule: Q01DX005 (ip), vehicle: saline) was 101 % of control and 92 % of control.
With `NC(Cc1ccc2c(c1)OCO2)c1ccc2c(c1)OCO2` (stereo unspecified) the T/C [4] was 101 % of control, the T/C [5] was 99 % of control and the T/C [6] was 101 % of control.
`CC(C)(C)OOC(=O)/C=C/c1ccccc1` was tested, and the T/C [8] was 101 % of control, the T/C [9] was 108 % of control and the T/C [10] was 92 % of control.
For `O=c1[nH]c(=O)c2cc3[nH]ncc3cc2[nH]1`, the T/C (dose: 25.0 mg/kg/injection, schedule: Q01DX005 (ip), vehicle: saline with Tween-80) was 93 % of control, the T/C [2] was 93 % of control and the T/C [3] was 92 % of control.
For `C=C(C)C1CC2=C(C(=O)OC)C=C(O2)C(C(=C)C)C2OC(=O)/C(=C\C1O)C2O` (stereo unspecified), the T/C (dose: 4.0 mg/kg/injection, schedule: Q01DX005 (ip), vehicle: saline + alcohol) was 103 % of control, the T/C (dose: 8.0 mg/kg/injection, schedule: Q01DX005 (ip), vehicle: saline + alcohol) was 103 % of control and the T/C (dose: 16.0 mg/kg/injection, schedule: Q01DX005 (ip), vehicle: saline + alcohol) was 99 % of control. The T/C (dose: 32.0 mg/kg/injection, schedule: Q01DX005 (ip), vehicle: saline + alcohol) was 99 % of control and the T/C (dose: 64.0 mg/kg/injection, schedule: Q01DX005 (ip), vehicle: saline + alcohol) was 101 % of control.
For `Cc1ccc(/C=C/c2ccc3ccccc3c2)cc1`, the T/C (dose: 50.0 mg/kg/injection, schedule: Q01DX009 (ip), vehicle: other) was 108 % of control, the T/C (dose: 100.0 mg/kg/injection, schedule: Q01DX009 (ip), vehicle: other) was 98 % of control and the T/C (dose: 200.0 mg/kg/injection, schedule: Q01DX009 (ip), vehicle: other) was 120 % of control.
With `C=CC(=NC(C)C)Nc1ccccc1` the T/C (dose: 1.56 mg/kg/injection, schedule: Q01DX009 (ip), vehicle: saline) was 112 % of control, the T/C (dose: 3.12 mg/kg/injection, schedule: Q01DX009 (ip), vehicle: saline) was 105 % of control and the T/C (dose: 6.25 mg/kg/injection, schedule: Q01DX009 (ip), vehicle: saline) was 104 % of control and 113 % of control.
For `CC(C)(C)NC(=S)N/N=C/c1cc(Cl)cc(Cl)c1O`, the T/C [7] was 97 % of control and the T/C (dose: 200.0 mg/kg/injection, schedule: Q01DX009 (ip), vehicle: saline with Tween-80) was 98 % of control.
